Measured values from ChEMBL document CHEMBL4308841, “Synthesis, in vitro antiproliferative activity, and kinase inhibitory effects of pyrazole-containing diarylureas and diarylamides” (Eur J Med Chem, 2018).

Experiments:
HT-29 = test: Growth inhibition of human HT-29 cells assessed as cell growth at 0.1 uM incubated for 48 hrs by sulforhodamine B assay relative to control; format: functional; details: HT-29, 48 h, read-out: Activity
MCF7 = test: Growth inhibition of human MCF7 cells assessed as cell growth at 1 uM incubated for 48 hrs by sulforhodamine B assay relative to control; format: functional; details: MCF7, 48 h, read-out: Activity
SNB-75 = test: Growth inhibition of human SNB75 cells assessed as cell growth at 1 uM incubated for 48 hrs by sulforhodamine B assay relative to control; format: functional; details: SNB-75, 48 h, read-out: Activity
MOLT-4 [1] = test: Growth inhibition of human MOLT4 cells assessed as cell growth at 100 uM incubated for 48 hrs by sulforhodamine B assay relative to control; format: functional; details: MOLT-4, 48 h, read-out: Activity
PC-3 = test: Growth inhibition of human PC3 cells incubated for 48 hrs by sulforhodamine B assay; format: functional, cell-based; details: PC-3, 48 h
SR = test: Growth inhibition of human SR cells assessed as cell growth at 100 uM incubated for 48 hrs by sulforhodamine B assay relative to control; format: functional; details: read-out: Activity
MDA-MB-468 = test: Growth inhibition of human MDA-MB-468 cells assessed as cell growth at 0.1 uM incubated for 48 hrs by sulforhodamine B assay relative to control; format: functional; details: MDA-MB-468, 48 h, read-out: Activity
HL-60(TB) = test: Growth inhibition of human HL-60(TB) cells assessed as cell growth at 0.1 uM incubated for 48 hrs by sulforhodamine B assay relative to control; format: functional; details: HL-60, 48 h, read-out: Activity
UACC-62 [2] = test: Growth inhibition of human UACC62 cells incubated for 48 hrs by sulforhodamine B assay; format: functional, cell-based; details: UACC-62, 48 h
OVCAR-4 [3] = test: Growth inhibition of human OVCAR4 cells assessed as cell growth at 1 uM incubated for 48 hrs by sulforhodamine B assay relative to control; format: functional; details: OVCAR-4, 48 h, read-out: Activity
OVCAR-4 [4] = test: Growth inhibition of human OVCAR4 cells assessed as cell growth at 0.01 uM incubated for 48 hrs by sulforhodamine B assay relative to control; format: functional; details: OVCAR-4, 48 h, read-out: Activity
NCI-H460 [5] = test: Growth inhibition of human NCI-H460 cells incubated for 48 hrs by sulforhodamine B assay; format: functional, cell-based; details: NCI-H460, 48 h
M14 = test: Growth inhibition of human M14 cells assessed as cell growth at 0.1 uM incubated for 48 hrs by sulforhodamine B assay relative to control; format: functional; details: M14, 48 h, read-out: Activity
NCI-H460 [6] = test: Growth inhibition of human NCI-H460 cells assessed as cell growth at 100 uM incubated for 48 hrs by sulforhodamine B assay relative to control; format: functional; details: NCI-H460, 48 h, read-out: Activity
Malme-3M = test: Growth inhibition of human MALME-3M cells incubated for 48 hrs by sulforhodamine B assay; format: functional, cell-based
K562 = test: Growth inhibition of human K562 cells incubated for 48 hrs by sulforhodamine B assay; format: functional, cell-based; details: K562, 48 h
MOLT-4 [7] = test: Growth inhibition of human MOLT4 cells assessed as cell growth at 1 uM incubated for 48 hrs by sulforhodamine B assay relative to control; format: functional; details: MOLT-4, 48 h, read-out: Activity
MDA-MB-231 = test: Growth inhibition of human MDA-MB-231 cells assessed as cell growth at 0.1 uM incubated for 48 hrs by sulforhodamine B assay relative to control; format: functional; details: MDA-MB-231, 48 h, read-out: Activity
HCT-15 = test: Growth inhibition of human HCT15 cells assessed as cell growth at 100 uM incubated for 48 hrs by sulforhodamine B assay relative to control; format: functional; details: HCT-15, 48 h, read-out: Activity
HCC 2998 = test: Growth inhibition of human HCC2998 cells assessed as cell growth at 100 uM incubated for 48 hrs by sulforhodamine B assay relative to control; format: functional; details: HCC 2998, 48 h, read-out: Activity
LOX IMVI = test: Growth inhibition of human LOXIMVI cells assessed as cell growth at 1 uM incubated for 48 hrs by sulforhodamine B assay relative to control; format: functional; details: read-out: Activity
UACC-62 [8] = test: Growth inhibition of human UACC62 cells assessed as cell growth at 100 uM incubated for 48 hrs by sulforhodamine B assay relative to control; format: functional; details: UACC-62, 48 h, read-out: Activity
NCI-H522 = test: Growth inhibition of human NCI-H522 cells assessed as cell growth at 0.1 uM incubated for 48 hrs by sulforhodamine B assay relative to control; format: functional; details: NCI-H522, 48 h, read-out: Activity
A549 = test: Growth inhibition of human A549/ATCC cells assessed as cell growth at 1 uM incubated for 48 hrs by sulforhodamine B assay relative to control; format: functional; details: A549, 48 h, read-out: Activity
NCI-H226 = test: Growth inhibition of human NCI-H226 cells assessed as cell growth at 0.1 uM incubated for 48 hrs by sulforhodamine B assay relative to control; format: functional; details: NCI-H226, 48 h, read-out: Activity
U-251 = test: Growth inhibition of human U251 cells assessed as cell growth at 1 uM incubated for 48 hrs by sulforhodamine B assay relative to control; format: functional; details: U-251, 48 h, read-out: Activity
KM12 = test: Growth inhibition of human KM12 cells incubated for 48 hrs by sulforhodamine B assay; format: functional, cell-based; details: KM12, 48 h
CCRF-CEM = test: Growth inhibition of human CCRF-CEM cells incubated for 48 hrs by sulforhodamine B assay; format: functional, cell-based
A498 = test: Growth inhibition of human A498 cells assessed as cell growth at 100 uM incubated for 48 hrs by sulforhodamine B assay relative to control; format: functional; details: A498, 48 h, read-out: Activity
[9] = read-out: LC50 (the source's name)
[10] = read-out: pLC50 (the source's name) (converted)

COc1cc(Cl)cc(-c2nn(-c3cccc(NC(=O)Nc4cccc(C(F)(F)F)c4)c3)cc2-c2ccncc2)c1
growth at 0.1 µM (HT-29): 95%
growth at 1 µM (MCF7): 62%
growth at 1 µM (SNB-75): 68%
growth at 100 µM (MOLT-4 [1]): -36%
IC50 (PC-3): 0.42 µM
GI50 (PC-3; read-out: GI50): 0.417 µM
CC50 (PC-3; [9]): > 100 µM
TGI (PC-3; read-out: TGI): 32 µM
GI50 (PC-3; read-out: pGI50 (converted)): 0.417 µM
CC50 (PC-3; [10]): > 100 µM
TGI (PC-3; read-out: pTGI (converted)): 3.24 µM
growth at 100 µM (SR): -30%
growth at 0.1 µM (MDA-MB-468): 92%
growth at 0.1 µM (HL-60(TB)): 98%
IC50 (UACC-62 [2]): 1.47 µM
GI50 (UACC-62 [2]; read-out: GI50): 1.47 µM
CC50 (UACC-62 [2]; [9]): 10.2 µM
TGI (UACC-62 [2]; read-out: TGI): 33.4 µM
GI50 (UACC-62 [2]; read-out: pGI50 (converted)): 1.48 µM
CC50 (UACC-62 [2]; [10]): 10.2 µM
TGI (UACC-62 [2]; read-out: pTGI (converted)): 3.8 µM
growth at 1 µM (OVCAR-4 [3]): 71%
growth at 0.01 µM (OVCAR-4 [4]): 93%
GI50 (NCI-H460 [5]; read-out: GI50): 0.84 µM
CC50 (NCI-H460 [5]; [9]): > 100 µM
TGI (NCI-H460 [5]; read-out: TGI): 45.8 µM
CC50 (NCI-H460 [5]; [10]): > 100 µM
growth at 0.1 µM (M14): 93%
growth at 100 µM (NCI-H460 [6]): -48%
GI50 (Malme-3M; read-out: GI50): 1.79 µM
CC50 (Malme-3M; [9]): > 100 µM
TGI (Malme-3M; read-out: TGI): 59.1 µM
GI50 (Malme-3M; read-out: pGI50 (converted)): 1.78 µM
CC50 (Malme-3M; [10]): > 100 µM
TGI (Malme-3M; read-out: pTGI (converted)): 5.89 µM
GI50 (K562; read-out: GI50): 0.823 µM
LC50 (K562; read-out: LC50): > 100 µM
TGI (K562; read-out: TGI): 14.4 µM
GI50 (K562; read-out: pGI50 (converted)): 0.832 µM
LC50 (K562; read-out: pLC50 (converted)): > 100 µM
TGI (K562; read-out: pTGI (converted)): 14.5 µM
growth at 1 µM (MOLT-4 [7]): 55%
growth at 0.1 µM (MDA-MB-231): 103%
growth at 100 µM (HCT-15): -72%
growth at 100 µM (HCC 2998): -83%
growth at 1 µM (LOX IMVI): 72%
growth at 100 µM (UACC-62 [8]): -82%
growth at 0.1 µM (NCI-H522): 53%
growth at 1 µM (A549): 43%
growth at 0.1 µM (NCI-H226): 95%
growth at 1 µM (U-251): 47%
GI50 (KM12; read-out: GI50): 0.611 µM
CC50 (KM12; [9]): > 100 µM
TGI (KM12; read-out: TGI): 47 µM
GI50 (KM12; read-out: pGI50 (converted)): 6.17 µM
CC50 (KM12; [10]): > 100 µM
TGI (KM12; read-out: pTGI (converted)): 4.79 µM
GI50 (CCRF-CEM; read-out: GI50): 1.2 µM
CC50 (CCRF-CEM; [9]): > 100 µM
TGI (CCRF-CEM; read-out: TGI): 53.6 µM
GI50 (CCRF-CEM; read-out: pGI50 (converted)): 1.2 µM
CC50 (CCRF-CEM; [10]): > 100 µM
TGI (CCRF-CEM; read-out: pTGI (converted)): 5.37 µM
growth at 100 µM (A498): -6%
